“And” between values parts separate entries of the source, which are not always exact repeats. Equal values may be shown once.
What was measured:
[1] = Quantification of C29 in mouse cerebellum postmortem (LC/MS); assay type: in vivo; conditions: for Amount of C29 in cerebellum: individual animals
Method: A 5 mM stock solution of C29 (1.743 mg/mL) in DMSO was prepared. This solution was diluted with a mixture of acetonitrile/water, 8/4, v/v to produce the solution with the highest concentration: 1250 ng/1.2 mL. Successive dilutions with acetonitrile/water, 8/4, v/v provided 5 more standards with concentrations between 50 ng/mL and 1250 ng/mL.
Samples of cerebellum were prepared by dissolving minced biological material in 1.2 mL acetonitrile/water, 8/4, v/v. After sonication for 5 min, the vials were centrifuged (15,000 rpm) and the supernatant was filtered through a […] PTFE microfilter.
All standards and samples were analysed using a LC/MS system consisting of an Agilent 1100 HPLC chain with a degasser, a binary pump, a column oven, an automatic injector, and a UV detector. The column is a Phenomenex Gemini analytical column 3 µm C18 110 A 150 mm × 3 mm × 3 µm, at 25 °C. The solvents are water with 0.1% formic acid (solvent A) and acetonitrile with 0.1% formic acid (solvent B). The gradient is as follows: 10% B to 100% B over 8 min, 100% B over 6 min, 100% B to 10% B over 1 min, and 10% B over 3 min (total time: 18 min). The UV detection is carried out over the range of 190–400 nm (in 2 nm steps). The mass spectrometer is an LCQ Advantage (ThermoScientific, Waltham, MA, USA) of the “ion trap 3D” type, equipped with an electrospray source.
Mass spectrometric detection was carried out in negative mode and in SRM (single reaction monitoring) mode according to the monitoring of the 380.9–194.2 transition. The isolation span of the ion was 2 mass units (193.2–195.2). The applied normalized collision energy was 30%. Each standard and sample were injected in duplicate. Each duplicate was separated by a blank and the concentration of the standards ranged from […]. […] Signals were acquired based on their area and integrated using the ICIS algorithm according to the following parameters: smoothing points: 15; baseline window: 75 scans; area noise factor: 5; peak noise factor: 10. Calibration is external, and the regression was linear. The origin was included in the calibration.
A critical and limiting feature of a drug targeting MB is its ability to cross the blood–brain barrier (BBB) and reach the tumour in the brain. […] However, after 5 days of treatment, 24 h after the last administration, no more C29 was found in the cerebellum of the mice.

[2] = tested on: Primary mouse astrocytes (C8D1A); experiment: IC50 on normal cells (XTT / cell death by PI staining); assay type: cell-based; conditions: C8-D1A, 48 h of treatment
From the text: We then determined the selectivity index (SI), which is the IC50 value for normal cells divided by the IC50 value for tumour cells, to assess the overall toxicity on normal tissues. These IC50 values determined by XTT assays or measurement of cell death by PI staining were nearly equivalent (Figure 3E,F). Primary mouse astrocytes (C8D1A) were selected based on their nervous system lineage. […] The SI was thus 6.44 for Daoy, 2.84 for ONS-76, 10.7 for HD-MB03, and 3.94 for D341Med, indicating selectivity towards tumour cell death at the doses considered. These values are also consistent with those determined for renal cancer cells. […]
1500 Daoy, ONS ‐76, HD ‐MB03 or D341 Med cells were sown in triplicate in plates with six wells and the cells were counted daily for 8 days using a Coulter counter (Ville‐ pinte). The relative number of cells (compared to day 1) was determined daily. […]
Y = Y0 * exp(k * X) (Y= Cell number at day X; Y0= Cell number at day 0 (graphically calculated); X= Day following cell plating (cells plated at X0=0); k= Exponential growth constant rate. Doubling times were compared.
150 Daoy/DR1/DR2/ ONS ‐ 76 and 300 HD ‐ MB03/HR1/HR2 cells were seeded in trip‐ licate in 6‐well plates in the presence or absence of treatment (1 or 2∙5μM MCK140 or DMSO as control). […] The number of clones was quantified using ImageJ software. […]

Accumulation in cerebellum upon repeated administration ([1]; 5 days of treatment, 24 h after the last administration): does not accumulate
Amount of C29 in cerebellum ([1]; gavage 100 mg/kg daily, chronic (5 days), 24 h after last treatment): 0 ng C29/mg cerebellum
Amount of C29 in cerebellum ([1]; gavage 200 mg/kg daily, chronic (5 days), 24 h after last treatment): 0 ng C29/mg cerebellum
Blood–brain barrier crossing ([1]; oral administration): can cross the blood–brain barrier
SMILES: O=C(Nc1cccc(Cl)c1)Nc1nc2ccc([N+](=O)[O-])cc2s1 [C29, 1-(3-chlorophenyl)-3-(6-nitrobenzo[d]thiazol-2-yl) urea]
Amount of C29 in cerebellum ([1]; gavage 100 mg/kg, acute (3 h), 100 mg/kg): 0 ng C29/mg cerebellum and 5.394 ng C29/mg cerebellum
Amount of C29 in cerebellum ([1]; gavage 200 mg/kg, acute (3 h), 200 mg/kg): 13.1 ng C29/mg cerebellum and 9.3 ng C29/mg cerebellum and 7.4 ng C29/mg cerebellum and 4.7 ng C29/mg cerebellum and 6.4 ng C29/mg cerebellum
IC50 [2]: 19.3 µM
